ChEMBL document CHEMBL3044567, “Synthesis and biological evaluation of novel condensed pyrimidinylmethylsulfinylbenzimidazoles as antiulcer agent” (2013)

How the values were obtained:
Format in all cases: functional, Stomach
Rattus norvegicus [1] = assay: Antiulcer activity in Wistar Rattus norvegicus (rat) assessed as decrease in total volume of gastric secretions at 0.0289 mM/kg, po administered 1 hr prior to pylorous ligation measured after 19 hr relative to untreated control; parameters: scale not given: the % may be the effect or the level left
Rattus norvegicus [2] = assay: Antiulcer activity in Wistar Rattus norvegicus (rat) assessed as decrease in total volume of gastric secretions at 0.0579 mM/kg, po administered 1 hr prior to pylorous ligation measured after 19 hr relative to untreated control; parameters: scale not given: the % may be the effect or the level left
Rattus norvegicus [3] = assay: Antiulcer activity in Wistar Rattus norvegicus (rat) assessed as decrease in total acidity of gastric secretions at 0.0579 mM/kg, po administered 1 hr prior to pylorous ligation measured after 19 hr by titRattus norvegicus (rat)ion assay relative to untreated control; parameters: scale not given: the % may be the effect or the level left
Rattus norvegicus [4] = assay: Antiulcer activity in Wistar Rattus norvegicus (rat) assessed as increase in pH of gastric secretions at 0.0579 mM/kg, po administered 1 hr prior to pylorous ligation measured after 19 hr by digital pH metric analysis relative to untreated control
Rattus norvegicus [5] = assay: Antiulcer activity in Wistar Rattus norvegicus (rat) assessed as change in pH of gastric secretions at 0.0289 mM/kg, po administered 1 hr prior to pylorous ligation measured after 19 hr by digital pH metric analysis relative to untreated control
Rattus norvegicus [6] = assay: Antiulcer activity in Wistar Rattus norvegicus (rat) assessed as decrease in total acidity of gastric secretions at 0.1158 mM/kg, po administered 1 hr prior to pylorous ligation measured after 19 hr by titRattus norvegicus (rat)ion assay relative to untreated control; parameters: scale not given: the % may be the effect or the level left
Rattus norvegicus [7] = assay: Antiulcer activity in Wistar Rattus norvegicus (rat) assessed as increase in pH of gastric secretions at 0.1158 mM/kg, po administered 1 hr prior to pylorous ligation measured after 19 hr by digital pH metric analysis relative to untreated control
Rattus norvegicus [8] = assay: Antiulcer activity in Wistar Rattus norvegicus (rat) assessed as decrease in total volume of gastric secretions at 0.1158 mM/kg, po administered 1 hr prior to pylorous ligation measured after 19 hr relative to untreated control; parameters: scale not given: the % may be the effect or the level left
Rattus norvegicus [9] = assay: Antiulcer activity in Wistar Rattus norvegicus (rat) assessed as decrease in total acidity of gastric secretions at 0.0289 mM/kg, po administered 1 hr prior to pylorous ligation measured after 19 hr by titRattus norvegicus (rat)ion assay relative to untreated control; parameters: scale not given: the % may be the effect or the level left

| SMILES | Activity (Rattus norvegicus [1]) | Activity (Rattus norvegicus [2]) | Activity (Rattus norvegicus [3]) | Activity (Rattus norvegicus [4]) | Activity (Rattus norvegicus [5]) | Activity (Rattus norvegicus [6]) | Activity (Rattus norvegicus [7]) | Activity (Rattus norvegicus [8]) | Activity (Rattus norvegicus [9]) |
| --- | --- | --- | --- | --- | --- | --- | --- | --- | --- |
| COc1nc(C[S+]([O-])c2nc3ccccc3[nH]2)nc2sc3c(c12)CCCC3 (configuration not stated) | 23.93% | 51.06% | 37.69% | 17.33% | 6.65% | 39.27% | 23.55% | 50% | 24.15% |
| [O-][S+](Cc1nc(OCC(F)(F)F)c2c3c(sc2n1)CCCC3)c1nc2ccccc2[nH]1 (configuration not stated) | 60.1% | 29.78% | 38.14% | 6.28% | 5.45% | 52.14% | 14.13% | 34.57% | 27.08% |
| COc1ccc2[nH]c([S+]([O-])Cc3nc(OC)c4c5c(sc4n3)CCCC5)nc2c1 (configuration not stated) | 69.94% | 77.39% | 33.86% | 9.05% | 1.44% | 50.33% | 10.33% | 57.71% | 29.57% |
| COc1nc(C[S+]([O-])c2nc3ccccc3[nH]2)nc2scc(-c3ccccc3)c12 (configuration not stated) | 70.74% | 61.96% | 25.28% | 6.19% | 0.72% | 36.79% | 9.91% | 72.34% | 23.92% |
| [O-][S+](Cc1nc(OCC(F)(F)F)c2c(-c3ccccc3)csc2n1)c1nc2ccccc2[nH]1 (configuration not stated) | 49.46% | 45.21% | 26.18% | 0.1% | 3.69% | 45.37% | 8.09% | 50.53% | 16.93% |
| COc1ccc2[nH]c([S+]([O-])Cc3nc(OC)c4c(-c5ccccc5)csc4n3)nc2c1 (configuration not stated) | 47.07% | 46.01% | 23.7% | 4.02% | 3.35% | 38.6% | 10.84% | 52.92% | 17.6% |
| COc1nc(C[S+]([O-])c2nc3ccccc3[nH]2)nc2scc(-c3ccc(Cl)cc3)c12 (configuration not stated) | 52.65% | 58.24% | 42.43% | 11.17% | 8.96% | 51.46% | 23.31% | 69.68% | 32.05% |
| [O-][S+](Cc1nc(OCC(F)(F)F)c2c(-c3ccc(Cl)cc3)csc2n1)c1nc2ccccc2[nH]1 (configuration not stated) | 43.08% | 50.26% | 41.76% | 17.97% | 2.03% | 52.82% | 32.86% | 60.37% | 22.34% |
| COc1ccc2[nH]c([S+]([O-])Cc3nc(OC)c4c(-c5ccc(Cl)cc5)csc4n3)nc2c1 (configuration not stated) | 28.19% | 43.88% | 22.12% | 2.25% | 5.41% | 37.92% | 3.048% | 55.58% | 5.41% |
| COc1ccc2[nH]c([S+]([O-])Cc3nc(Cl)c4c5c(sc4n3)CCCC5)nc2c1 (configuration not stated) | 44.41% | 53.98% | 41.76% | 11.99% | 5.07% | 48.08% | 20.03% | 59.84% | 24.37% |
| COc1ccc2[nH]c([S+]([O-])Cc3nc(Cl)c4c(-c5ccccc5)csc4n3)nc2c1 (configuration not stated) | 42.02% | 68.08% | 25.5% | 5.54% | 5.45% | 40.18% | 14.36% | 76.32% | 20.76% |
| COc1ccc2[nH]c([S+]([O-])Cc3nc(Cl)c4c(-c5ccc(Cl)cc5)csc4n3)nc2c1 (configuration not stated) | 56.64% | 67.28% | 24.37% | 5.91% | 1.44% | 44.01% | 19.72% | 73.67% | 18.05% |
| COc1ccc2[nH]c([S+]([O-])Cc3ncc(C)c(OC)c3C)nc2c1 (configuration not stated) [OMEPRAZOLE] | 53.72% | 63.55% | 56.65% | 55.79% | 50.9% | 71.55% | 62.67% | 73.93% | 49.66% |
